pIC50: −log10 of the molar value. Structures can show the parent of a compound that is named as a salt. Starred links: 1 amine or outer side, 2 acyl side, 3 side chain; linkers in the order of their positions; H or OH if unused. Positions of bridges follow the written chain, without caps; N, C: chain ends. Non-standard residues stand in square brackets, D forms with d. Residues, ends and D or L forms follow the SMILES beside them. *: point of attachment. X13 = C[N+]1(Cc2cn(-c3ccc(C[C@H](N[*:1])C(=O)[*:2])cc3)nn2)CCOCC1; X64 = C[N+]1(C)CCN(c2ccc(C[C@H](N[*:1])C(=O)[*:2])cc2)CC1; Me3N+(CH2)2O(CH2)2O(CH2)2CO = C[N+](C)(C)CCOCCOCCC(=O)*; X21 = O=C([C@H](Cc1cncc(C(F)(F)F)c1)N[*:1])[*:2]; Trp(7-Me) = Cc1cccc2c(C[C@H](N)C(=O)O)c[nH]c12; dLys(Me3) = C[N+](C)(C)CCCC[C@@H](N)C(=O)O; 3Pal(5-Me) = Cc1cncc(C[C@H](N)C(=O)O)c1; 2Nal = N[C@@H](Cc1ccc2ccccc2c1)C(=O)O; AEF = NCCOc1ccc(C[C@H](N)C(=O)O)cc1; Piperazinyl(4-Me) = CN1CCN(*)CC1; 3Pal = N[C@@H](Cc1cccnc1)C(=O)O; X54 = CC(=O)N(CC[N+](C)(C)C)CC*; Lys(Me) = CNCCCC[C@H](N)C(=O)O; Pen = CC(C)(S)[C@H](N)C(=O)O; X49 = O=C(CCCCCCCC*)N1CCCCC1; X52 = C[N+](C)(C)CCOCCNCC*; Thp = NC1(C(=O)O)CCOCC1; X17 = C[N+]1(CC*)CCOCC1; X3 = C[N+](C)(C)CCCCC*; Tfa = O=C(C(F)(F)F)*; X25 = COCCOCCN(C)*; Sar = CNCC(=O)O
Assays:
IL-23R = target: T1, IL-23R (Homo sapiens, UniProt Q5VWK5); assay: IL23R Reporter Assay; assay type: cell-based; conditions: HEK293 cells containing IL-23R, IL-12RP1 and STAT-inducible firefly luciferase reporter; 10 ng/mL IL-23 (EC90); 5 h at 37° C.; read-out: IL23R Reporter Assay
T1 construct: host or cells: HEK293
T1 sequence (Q5VWK5 24-629): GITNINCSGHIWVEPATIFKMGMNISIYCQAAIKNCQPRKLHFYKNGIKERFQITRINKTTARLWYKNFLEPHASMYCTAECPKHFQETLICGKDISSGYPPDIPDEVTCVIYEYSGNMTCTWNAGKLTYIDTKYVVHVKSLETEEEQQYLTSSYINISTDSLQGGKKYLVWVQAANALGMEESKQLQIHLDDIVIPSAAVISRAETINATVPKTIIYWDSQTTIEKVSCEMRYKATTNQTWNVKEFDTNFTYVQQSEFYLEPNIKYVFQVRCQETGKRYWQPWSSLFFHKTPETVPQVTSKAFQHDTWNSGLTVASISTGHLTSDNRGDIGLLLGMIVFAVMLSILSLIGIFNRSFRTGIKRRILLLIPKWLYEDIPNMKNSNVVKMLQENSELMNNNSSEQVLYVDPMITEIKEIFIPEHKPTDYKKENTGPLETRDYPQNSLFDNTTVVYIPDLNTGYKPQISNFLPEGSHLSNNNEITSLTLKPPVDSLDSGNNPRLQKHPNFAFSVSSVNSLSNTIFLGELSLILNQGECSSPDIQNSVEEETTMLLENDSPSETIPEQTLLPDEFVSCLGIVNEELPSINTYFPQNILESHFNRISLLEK

[1] = Exposed Polar Surface Area (EPSA); assay type: physicochemical; conditions: SFC on Chirex 3014 column; sample 1 mM DMSO stock; read-out: EPSA
How it was run: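 Chirex 3014 column, 35 °C, 4 mL/min; CO2/MeOH + 20 mM NH4 formate, 5→60% modifier at 20%/min. UV/MS detection. EPSA (Å^2) from retention time vs 8-standard calibration line; duplicates; 1 mM DMSO stock injected undiluted.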

| Structure (SMILES) | pIC50 (IL-23R) | EPSA [1] [A^2] |
| --- | --- | --- |
| CC(=O)NCCCC[C@@H]1NC(=O)[C@H](Cc2c[nH]c3c(C)cccc23)NC(=O)[C@H]([C@@H](C)O)NC(=O)[C@H](CC(N)=O)NC(=O)[C@@H](NC(C)=O)C(C)(C)SSC(C)(C)[C@@H](C(=O)N[C@@H](Cc2ccc(OCCN)cc2)C(=O)N[C@@H](Cc2ccc3ccccc3c2)C(=O)NC2(C(=O)N[C@@H](CCC(=O)O)C(=O)N[C@@H](CC(N)=O)C(=O)N[C@@H](Cc3cccnc3)C(=O)N(C)CC(=O)N3CCN(C)CC3)CCOCC2)NC1=O [compound 114] (Ac-[Pen]NT[Trp(7-Me)]K(Ac)[Pen][AEF][2Nal][Thp]EN[3Pal][Sar]-{Piperazinyl(4-Me)}; disulfide 1-6 (inferred)) | 7.55 | 173 |
| CC(=O)NCCCC[C@@H]1NC(=O)[C@H](Cc2c[nH]c3c(C)cccc23)NC(=O)[C@H]([C@@H](C)O)NC(=O)[C@H](CC(N)=O)NC(=O)[C@@H](NC(=O)[C@@H](CCCC[N+](C)(C)C)NC(C)=O)C(C)(C)SSC(C)(C)[C@@H](C(=O)N[C@@H](Cc2ccc(OCCCCC[N+](C)(C)C)cc2)C(=O)N[C@@H](Cc2ccc3ccccc3c2)C(=O)NC2(C(=O)N[C@@H](CCC(=O)O)C(=O)N[C@@H](CC(N)=O)C(=O)N[C@@H](Cc3cncc(C)c3)C(=O)N(C)CC(N)=O)CCOCC2)NC1=O [compound 534, MeCO-k(Me)3-Pen(3)-N-T-7MeW-K(Ac)-Pen(3)-TMAPF-2Nal-THP-E-N-5MePyridinAla-Sar-CONH2] (Ac-[dLys(Me3)][Pen]NT[Trp(7-Me)]K(Ac)[Pen]Y(X3)[2Nal][Thp]EN[3Pal(5-Me)][Sar]-NH2; disulfide 2-7) | 8.68 | 172 |
| CC(=O)NCCCC[C@@H]1NC(=O)[C@H](Cc2c[nH]c3c(C)cccc23)NC(=O)[C@H]([C@@H](C)O)NC(=O)[C@H](CC(N)=O)NC(=O)[C@@H](NC(C)=O)C(C)(C)SSC(C)(C)[C@@H](C(=O)N[C@@H](Cc2ccc(-n3cc(C[N+]4(C)CCOCC4)nn3)cc2)C(=O)N[C@@H](Cc2ccc3ccccc3c2)C(=O)NC2(C(=O)N[C@@H](CCC(=O)O)C(=O)N[C@@H](CC(N)=O)C(=O)N[C@@H](Cc3cccnc3)C(=O)N(C)CC(N)=O)CCOCC2)NC1=O [compound 459] (Ac-[Pen]NT[Trp(7-Me)]K(Ac)[Pen][X13][2Nal][Thp]EN[3Pal][Sar]-NH2; disulfide 1-6 (inferred)) | 8.74 | 178 |
| COCCOCCN(C)C(=O)CN(C)C(=O)[C@H](Cc1cccnc1)NC(=O)[C@H](CC(N)=O)NC(=O)[C@H](CCC(=O)O)NC(=O)C1(NC(=O)[C@H](Cc2ccc3ccccc3c2)NC(=O)[C@H](Cc2ccc(OCCN)cc2)NC(=O)[C@H]2NC(=O)[C@H](CCCCNC(C)=O)NC(=O)[C@H](Cc3c[nH]c4c(C)cccc34)NC(=O)[C@H]([C@@H](C)O)NC(=O)[C@H](CC(N)=O)NC(=O)[C@@H](NC(C)=O)C(C)(C)SSC2(C)C)CCOCC1 [compound 113] (Ac-[Pen]NT[Trp(7-Me)]K(Ac)[Pen][AEF][2Nal][Thp]EN[3Pal][Sar]-X25; disulfide 1-6 (inferred)) | 8.42 | 169 |
| CC(=O)N(C)CCCC[C@@H]1NC(=O)[C@H](Cc2c[nH]c3c(C)cccc23)NC(=O)[C@H]([C@@H](C)O)NC(=O)[C@H](CC(=O)N(C)C)NC(=O)[C@@H](NC(=O)CCOCCOCC[N+](C)(C)C)C(C)(C)SSC(C)(C)[C@@H](C(=O)N[C@@H](Cc2ccc(OCCN(CC[N+](C)(C)C)C(C)=O)cc2)C(=O)N[C@@H](Cc2ccc3ccccc3c2)C(=O)NC2(C(=O)N[C@@H](CCCCN(C)C(C)=O)C(=O)N[C@@H](CC(N)=O)C(=O)N[C@@H](Cc3cccnc3)C(=O)N(C)CC(=O)N(C)C)CCOCC2)NC1=O [compound 207, cPEG3aCO-Pen(3)-N(N(Me)2)-T-7MeW-K(NMeAc)-Pen(3)-AEF(AcCh)-2Nal-THP-K(NMeAc)-N-3Pya-Sar-CON(Me)2] ({Me3N+(CH2)2O(CH2)2O(CH2)2CO}-[Pen]D(NMe2)T[Trp(7-Me)][Lys(Me)](Ac)[Pen]Y(X54)[2Nal][Thp][Lys(Me)](Ac)N[3Pal][Sar]-NMe2; disulfide 1-6) | 8.49 | 139 |
| CC(=O)NCCCC[C@@H]1NC(=O)[C@H](Cc2c[nH]c3c(C)cccc23)NC(=O)[C@H]([C@@H](C)O)NC(=O)[C@H](CC(N)=O)NC(=O)[C@@H](NC(=O)C(F)(F)F)C(C)(C)SSC(C)(C)[C@@H](C(=O)N[C@@H](Cc2ccc(OCCN)cc2)C(=O)N[C@@H](Cc2ccc3ccccc3c2)C(=O)NC2(C(=O)N[C@@H](CCCCNC(C)=O)C(=O)N[C@@H](CC(N)=O)C(=O)N[C@@H](Cc3cncc(C(F)(F)F)c3)C(=O)N(C)CC(N)=O)CCOCC2)NC1=O [compound 56] (Tfa-[Pen]NT[Trp(7-Me)]K(Ac)[Pen][AEF][2Nal][Thp]K(Ac)N[X21][Sar]-NH2; disulfide 1-6 (inferred)) | 8.24 | 158 |
| CC(=O)N(C)CCCC[C@@H]1NC(=O)[C@H](Cc2c[nH]c3c(C)cccc23)NC(=O)[C@H]([C@@H](C)O)NC(=O)[C@H](CC(=O)N(C)C)NC(=O)[C@@H](NC(=O)CCOCCOCC[N+](C)(C)C)C(C)(C)SSC(C)(C)[C@@H](C(=O)N[C@@H](Cc2ccc(N3CC[N+](C)(C)CC3)cc2)C(=O)N[C@@H](Cc2ccc3ccccc3c2)C(=O)NC2(C(=O)N[C@@H](CCCCN(C)C(C)=O)C(=O)N[C@@H](CC(N)=O)C(=O)N[C@@H](Cc3cccnc3)C(=O)N(C)CC(=O)N(C)C)CCOCC2)NC1=O [compound 273, cPEG3aCO-Pen(3)-N(N(Me)2)-T-7MeW-K(NMeAc)-Pen(3)-PiperazinequatF-2Nal-THP-K(NMeAc)-N-3Pya-Sar-CON(Me)2] ({Me3N+(CH2)2O(CH2)2O(CH2)2CO}-[Pen]D(NMe2)T[Trp(7-Me)][Lys(Me)](Ac)[Pen][X64][2Nal][Thp][Lys(Me)](Ac)N[3Pal][Sar]-NMe2; disulfide 1-6) | 8.59 | 157 |

More lines, in order of rising pIC50 (IL-23R), values ahead:

| pIC50 (IL-23R) | EPSA [1] [A^2] | Structure (SMILES) |
| --- | --- | --- |
| 7.60 | 145 | CC(=O)N(C)CCCC[C@@H]1NC(=O)[C@H](Cc2c[nH]c3c(C)cccc23)NC(=O)[C@H]([C@@H](C)O)NC(=O)[C@H](CC(=O)N(C)C)NC(=O)[C@@H](NC(=O)CCOCCOCC[N+](C)(C)C)C(C)(C)SSC(C)(C)[C@@H](C(=O)N[C@@H](Cc2ccc(OCCCCCCCCC(=O)N3CCCCC3)cc2)C(=O)N[C@@H](Cc2ccc3ccccc3c2)C(=O)NC2(C(=O)N[C@@H](CCCCN(C)C(C)=O)C(=O)N[C@@H](CC(N)=O)C(=O)N[C@@H](Cc3cccnc3)C(=O)N(C)CC(=O)N(C)C)CCOCC2)NC1=O [compound 242, cPEG3aCO-Pen(3)-N(N(Me)2)-T-7MeW-K(NMeAc)-Pen(3)-YC8COPip-2Nal-THP-K(NMeAc)-N-3Pya-Sar-CON(Me)2] ({Me3N+(CH2)2O(CH2)2O(CH2)2CO}-[Pen]D(NMe2)T[Trp(7-Me)][Lys(Me)](Ac)[Pen]Y(X49)[2Nal][Thp][Lys(Me)](Ac)N[3Pal][Sar]-NMe2; disulfide 1-6) |
| 8.46 | 145 | CC(=O)N(C)CCCC[C@@H]1NC(=O)[C@H](Cc2c[nH]c3c(C)cccc23)NC(=O)[C@H]([C@@H](C)O)NC(=O)[C@H](CC(=O)N(C)C)NC(=O)[C@@H](NC(=O)CCOCCOCC[N+](C)(C)C)C(C)(C)SSC(C)(C)[C@@H](C(=O)N[C@@H](Cc2ccc(OCCNCCOCC[N+](C)(C)C)cc2)C(=O)N[C@@H](Cc2ccc3ccccc3c2)C(=O)NC2(C(=O)N[C@@H](CCCCN(C)C(C)=O)C(=O)N[C@@H](CC(N)=O)C(=O)N[C@@H](Cc3cccnc3)C(=O)N(C)CC(=O)N(C)C)CCOCC2)NC1=O [compound 238, cPEG3aCO-Pen(3)-N(N(Me)2)-T-7MeW-K(NMeAc)-Pen(3)-AEF(PEG2a)-2Nal-THP-K(NMeAc)-N-3Pya-Sar-CON(Me)2] ({Me3N+(CH2)2O(CH2)2O(CH2)2CO}-[Pen]D(NMe2)T[Trp(7-Me)][Lys(Me)](Ac)[Pen]Y(X52)[2Nal][Thp][Lys(Me)](Ac)N[3Pal][Sar]-NMe2; disulfide 1-6) |
| 8.51 | 144 | CC(=O)N(C)CCCC[C@@H]1NC(=O)[C@H](Cc2c[nH]c3c(C)cccc23)NC(=O)[C@H]([C@@H](C)O)NC(=O)[C@H](CC(=O)N(C)C)NC(=O)[C@@H](NC(=O)CCOCCOCC[N+](C)(C)C)C(C)(C)SSC(C)(C)[C@@H](C(=O)N[C@@H](Cc2ccc(OCC[N+]3(C)CCOCC3)cc2)C(=O)N[C@@H](Cc2ccc3ccccc3c2)C(=O)NC2(C(=O)N[C@@H](CCCCN(C)C(C)=O)C(=O)N[C@@H](CC(N)=O)C(=O)N[C@@H](Cc3cccnc3)C(=O)N(C)CC(=O)N(C)C)CCOCC2)NC1=O [compound 198, cPEG3aCO-Pen(3)-N(N(Me)2)-T-7MeW-K(NMeac)-Pen(3)-MMoEF-2Nal-THP-K(NMeAc)-N-3Pya-Sar-CON(Me)2] ({Me3N+(CH2)2O(CH2)2O(CH2)2CO}-[Pen]D(NMe2)T[Trp(7-Me)][Lys(Me)](Ac)[Pen]Y(X17)[2Nal][Thp][Lys(Me)](Ac)N[3Pal][Sar]-NMe2; disulfide 1-6) |
